Source: paper PMC12505902, “Inhibitors of trehalose-6-phosphate synthase activity in fungal pathogens compromise thermal tolerance pathways” (mBio, 2025)

Experiments:
6xHis-CnTps1 = 6xHis-CnTps1 (Cryptococcus neoformans var. grubii, UniProt J9VJZ1); assay: Microscale thermophoresis (MST); conditions: label-free MST, one-site binding model, n = 3, SD
Method: (§1) Fig 2 4456dh binds Tps1 and inhibits Tps1 activity. (A) Structure of 4456dh. (B and C) Glo-melt thermal shift assays reveal 4456dh destabilizes 6xHis-CaTps1 (B) and 6xHis-CnTps1 (C). The first derivative of the raw data was used to determine the melting temperature of 1 µM 6xHis-CaTps1 (B) and 1 µM 6xHis-CnTps1 (C) treated without (black) or with 2 mM 4456dh (red). […] The resulting dose-response curves were fitted to a one-site binding model to extract Kd values; the SD was calculated using the Kd values from each independent experiment (n = 3). (F) Tps1 enzyme activity assay with 5 µM 6xHis-CaTps1 (F) and 6xHis-CnTps1 (G) ±1 mM 4456dh. Error bars represent SE. […]
(§2) Given the intrinsic fluorescence of CaTps1 and CnTps1, we were able to detect binding without the use of additional fluorophores. […]
(§3) 82 determined by SDS-PAGE analysis, were pooled and concentrated to 1 mg/mL for downstream […]
(§4) 93 The data were acquired with MO.Control 1.5.3 (NanoTemper Technologies GmbH). Recorded
(§5) 94 data were analyzed with MO.Affinity Analysis 2.2.7 (NanoTemper Technologies GmbH). […]
(§6) 100 2X Glo-melt dye. Thermal denaturation was measured using an RT-PCR thermocycler (BioRad) […]
(§7) 102 determined by identifying the inflection point of the derivative data. […]
(§8) 104 The catalytic activity of C. albicans Tps1 and C. neoformans Tps1 was measured via a continuous […]
(§9) 111 reaction rate was recorded using a plate reader (Tecan). […]

6xHis-CaTps1 = target: T1, 6xHis-CaTps1 (Candida albicans, UniProt Q92410); assay: Microscale thermophoresis (MST); conditions: label-free MST, one-site binding model, n = 3, SD
T1 construct: Briefly, the full-length; thrombin cleavage site (pET-28a linker) (N); made in house; host or cells: E. coli BL21(DE3)pLysS
T1 sequence (Q92410 1-478): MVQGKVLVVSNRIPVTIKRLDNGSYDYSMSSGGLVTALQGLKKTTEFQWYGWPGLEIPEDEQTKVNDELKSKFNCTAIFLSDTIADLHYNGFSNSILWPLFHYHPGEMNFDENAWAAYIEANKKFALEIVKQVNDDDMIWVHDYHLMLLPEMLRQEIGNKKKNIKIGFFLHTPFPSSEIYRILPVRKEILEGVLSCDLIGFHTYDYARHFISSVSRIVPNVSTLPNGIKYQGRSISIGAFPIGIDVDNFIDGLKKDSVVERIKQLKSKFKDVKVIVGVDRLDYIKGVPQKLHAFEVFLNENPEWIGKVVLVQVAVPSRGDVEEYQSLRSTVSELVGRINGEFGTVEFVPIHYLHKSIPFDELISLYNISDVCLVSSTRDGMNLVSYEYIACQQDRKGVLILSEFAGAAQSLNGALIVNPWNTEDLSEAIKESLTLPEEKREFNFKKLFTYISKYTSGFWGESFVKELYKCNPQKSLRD
Method: as §1, §2, §3, §4, §5, §6, §7, §8, §9

Sequence of 6xHis-CnTps1 (J9VJZ1 entry or part of it): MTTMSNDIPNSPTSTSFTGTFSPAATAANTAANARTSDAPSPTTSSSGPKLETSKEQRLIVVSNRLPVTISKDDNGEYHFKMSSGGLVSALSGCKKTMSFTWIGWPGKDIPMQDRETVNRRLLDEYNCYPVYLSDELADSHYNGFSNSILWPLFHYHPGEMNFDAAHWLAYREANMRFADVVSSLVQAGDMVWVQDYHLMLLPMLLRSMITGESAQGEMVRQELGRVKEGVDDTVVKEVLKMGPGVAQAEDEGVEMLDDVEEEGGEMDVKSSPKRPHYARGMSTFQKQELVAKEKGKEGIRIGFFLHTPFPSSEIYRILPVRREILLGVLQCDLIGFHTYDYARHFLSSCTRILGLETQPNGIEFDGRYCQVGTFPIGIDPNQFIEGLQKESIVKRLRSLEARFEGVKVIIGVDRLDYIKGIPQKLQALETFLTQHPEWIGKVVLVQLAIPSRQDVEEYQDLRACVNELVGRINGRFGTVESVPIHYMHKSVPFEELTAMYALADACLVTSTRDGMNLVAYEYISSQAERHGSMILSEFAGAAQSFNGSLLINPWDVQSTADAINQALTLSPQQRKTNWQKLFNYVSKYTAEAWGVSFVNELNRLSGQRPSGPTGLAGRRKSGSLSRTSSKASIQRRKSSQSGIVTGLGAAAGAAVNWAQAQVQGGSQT

Cn1cc(-c2csc(NC(=O)Cc3ccccn3)n2)cn1 [Compound 4456dh]
Kd (6xHis-CnTps1): 33.4 µM
Kd (6xHis-CaTps1): 7.1 µM
